Assay [1] has as its system neutrophils. Nature of the assay: Etoposide-induced apoptosis in neutrophils. The format is cell-based, human. Conditions: neutrophils (FIG. 1c). How it is done:
(§1) DNA fragmentation was determined by FACS.
(§2) Next, we asked whether Roc-A could also protect other normal primary cells from DNA damage-induced toxicity. To address this question, we examined the protective effect of Roc-A on Etoposide-treated human peripheral blood B cells, NK cells, neutrophils, cardiomyocytes and murine hematopoietic stem and progenitor cells (HSPCs).

Assay [2] has as its system NK cells. Nature of the assay: Etoposide-induced apoptosis in NK cells. The format is cell-based, human. To be noted: NK cells (FIG. 1c). The procedure:
as §1, §2

Assay [3] concerns L1236 (Hodgkin's lymphoma), p53 mutated. Nature of the assay: Etoposide-induced cell death in L1236. The format is cell-based, human. To be noted: L1236 (FIG. 5a). How it is done:
as §1
(§3) Since Roc-A-mediated protection of non-malignant cells from DNA-damage-induced cell death is largely p53-dependent, we predicted that Roc-A would not protect cancer cells which have non-functional p53. […] 1997; 19: 243-253), Reh (Zhou et al, loc cit.), SKW6.4 (Barbarotto et al., J Cell Biochem. 2008; 104: 595-605) and NCI-H209 (Fujita et al. Int J Oncol. 1999; 15: 927-934) which have a WT p53 protein.

The subject of assay [4] is Peripheral blood T cells. Nature of the assay: Etoposide-induced apoptotic cell death of T cells (DNA fragmentation, AnnexinV, FSC/SSC). The procedure: The human malignant cell lines EU-3 (acute lymphoblastic leukemia), DND-41 (T cell leukemia), Hut-78 (T cell lymphoma), SKW6.4 (B cell leukemia), Reh (acute lymphoblastic leukemia), IM-9 (Chronic myeloid leukemia), HL-60 (promyelocytic leukemia), L1236 (Hodgkin's lymphoma) and NCI-H209 (small cell lung cancer) were cultured at 37° C. with 5% CO2 in RPMI-1640 medium (Sigma-Aldrich, Munich, Germany) supplemented with 10% FCS, 100 U/ml Penicillin (Sigma-Aldrich, Munich, Germany) and 100 μg/ml Streptamycin (Sigma-Aldrich, Munich, Germany) SCLC-21H cells (small cell lung cancer) were cultured in DMEM medium (Sigma-Aldrich, Munich, Germany) supplemented with 10% FCS. Peripheral blood T lymphocytes were isolated as previously described (Klas et al., Int Immunol. 1993; 5: 625-630). B lymphocytes and NK cells were isolated by magnetic activated cell sorting using “B cell isolation kit II” (Miltenyi Biotech, Bergisch Gladbach, Germany) and “NK cell isolation kit, human” (Miltenyi Biotech, Bergisch Gladbach, Germany), respectively, according to the manufacturer's instructions. Human neutrophils were separated from peripheral blood mononuclear cells by Ficoll-Paque density centrifugation, followed by incubation in 1.05% dextran for 30 min at room temperature. Remaining erythrocytes were lysed by resuspension in ice-cold 0.2% sodium chloride solution. After 1 min ice-cold 1.6% sodium-chloride solution was added and lysis was stopped by addition of PBS and neutrophils were resuspended in medium at a concentration of 2×10^6 cells/ml. Human primary cardiomyocytes were purchased from PromoCell (Heidelberg, Germany) and cultured in Myocyte Growth Medium (PromoCell, Heidelberg, Germany). Remaining primary human cells were cultured in RPMI-1640 medium with the same conditions described above.
Apoptotic cell death was determined by AnnexinV staining, cellular forward scatter/side scatter (FSC/SSC) profile, or DNA fragmentation. For AnnexinV staining, 2×10^5 cells were treated with different drugs for indicated time periods, washed with AnnexinV binding buffer (0.01 M Hepes, 0.14 M NaCl, 2.5 mM CaCl2), and stained with AnnexinV-FITC antibody (Immunotools, Friesoythe, Germany) and 7-amino-actinomycin D (Sigma-Aldrich, Munich, Germany) for 30 min at 4° C. The amount of AnnexinV positive cells was determined by FACS measurement. DNA fragmentation was determined according to the method of Nicoletti (Nicoletti et al., J Immunol Methods. 1991; 139: 271-279). Briefly, 2×10^5 cells were treated as indicated, washed with PBS and lysed in Nicoletti buffer (0.1% sodium citrate, 0.1% Triton X-100, 50 μg/ml propidium iodide). DNA fragmentation was determined by FACS. Apoptosis-like cells were determined by forward scatter and side scatter (FSC/SSC) index. Specific DNA fragmentation/specific AnnexinV positive cells/specific apoptosis was calculated as follows: (percentage of experimental DNA fragmentation (or Annexin V positive cells or apoptosis)−percentage of spontaneous DNA fragmentation (or Annexin V positive cells or apoptosis)/(100−percentage of spontaneous DNA fragmentation (or Annexin V positive cells or apoptosis))×100.

Assay [5] concerns malignant cells. Nature of the assay: Fold change in cell death on raising the Etoposide dose, malignant cells (FIG. 9a-b). It is filed as cell-based. Conditions: 75 nM Roc-A in parallel to Etoposide, 6.25 μM to 50 μM, 24 h. The procedure:
(§4) (a) Cells from (b) were grouped into malignant and non-malignant cells. Shown are means of three independent experiments. Abbreviations; HSPCs=hematopoietic stem and progenitor cells. (c-d) Malignant and non-malignant cells were exposed to ionizing radiation (IR) in the presence of 75 nM Roc-A or solvent (DMSO) and cell death was determined after 24 h by DNA fragmentation. Depicted is the fold-change in cell death that was measured when doses of IR were increased from 2 Gy to 10 Gy. (c) Cells from (d) were grouped into malignant and non-malignant cells. Shown are means of three independent experiments.
as §1
(§5) Roc-A specifically prevents the cause of chemotherapeutic and radiation-induced side-effects, i.e., the death of healthy cells. […] Consequently, high-dose therapy is not possible, as side effects would be too high.

The test system of assay [6] is Hut-78 (T cell lymphoma), p53 mutated. As to the kind of experiment: Etoposide-induced cell death in Hut-78. It is filed as cell-based, human. Conditions: Hut-78 (FIG. 5a). How it is done:
as §1, §3

The test system of assay [7] is non-malignant cells. As to the kind of experiment: Fold change in cell death on raising the Etoposide dose, non-malignant cells (FIG. 9a-b). The format is cell-based. To be noted: 75 nM Roc-A in parallel to Etoposide, 6.25 μM to 50 μM, 24 h. How it is done:
as §4, §1, §5

Assay [8] has as its system Peripheral blood T cells. Nature of the assay: Teniposide-, Doxorubicin- and Bleomycin-induced apoptotic cell death in T cells. It is filed as cell-based, human. Conditions: Roc-A 75 nM; increasing doses of the drugs (FIG. 1b). The procedure: as §1
The radioprotective effect mediated by Roc-A was the highest when cells were treated with Roc-A 1 h before radiation of cells (FIG. 1d). However, when cells were treated 4 h after radiation, the radioprotective effect was still higher than 50% (FIG. 1d).

The test system of assay [9] is γ-H2AX. The format is cell-based. Conditions: Roc-A 75 nM, T cells (FIG. 2a-b).
Method: DNA damage was determined by quantification of γ-H2AX foci formation and by alkaline single-cell gel electrophoresis assay (comet assay). For γ-H2AX staining, cells were treated as indicated, fixed in 3% formaldehyde and permeabilized in 90% methanol. Following storage at −20° C. overnight, cells were incubated with mouse serum to block unspecific binding and stained with antibody directed against γ-H2AX (AlexaFluor 488-coupled, 2F3 [BioLegend, Fell, Germany]), or with isotype control antibody (AlexaFluor 488-coupled [BioLegend, Fell, Germany]). The amount of γ-H2AX foci formation was determined by FACS measurement. […] Nuclei were stained with DAPI mounting medium (Dianova, Hamburg, Germany). Comet assays were carried out as previously described (Greve et al., PloS one. 2012; 7: e47185). Briefly, electrophoresis of cellular genomic DNA was performed under alkaline conditions at 4° C. The amount of DNA damage was measured by “Olive Tail Moment”. Analysis of cellular DNA damage was carried out by fluorescence microscopy, using a fully automated cell scanning system Metafer-4 (Metasystems, Altlutβheim, Germany).
To address this question, we determined the level of the DNA-damage marker γ-H2AX, which is generated around the site of a DNA double-strand break (Rogakou et al., J Biol Chem. 1998; 273: 5858-5868).
Assay [10] relates to human peripheral blood B cells. Nature of the assay: Etoposide-induced apoptosis in B cells. The format is cell-based. To be noted: B cells (FIG. 1c). The procedure:
as §1, §2

Entries after “also recorded” stand apart in the source; their conditions may differ.

As to `COc1ccc([C@@]23Oc4cc(OC)cc(OC)c4[C@]2(O)[C@H](O)[C@H](C(=O)N(C)C)[C@H]3c2ccccc2)cc1` [Roc-A, (1R,2R,3S,3aR,8bS)-1,8b-dihydroxy-6,8-dimethoxy-3a-(4-methoxyphenyl)-N,N-dimethyl-3-phenyl-2,3-dihydro-1H-cyclopenta[b][1]benzofuran-2-carboxamide], the “Protection against Etoposide-induced apoptosis” value in assay [1], in [2] and in assay [10] was “protected” throughout. Moreover, the “Protection against Etoposide-induced cell death” value in assay [3] and in assay [6] was “did neither protect” throughout. For the same compound, the “Protection of normal T cells from Etoposide-induced cell death by Roc-derivatives” value in assay [4] (50 μM Etoposide, 75 nM Roc-derivative, 24 h (FIG. 6b)) is listed as “different levels of protection”. Also, in assay [4] (50 μM Etoposide, different concentrations of Roc-A, indicated time-periods (FIG. 1a middle)), the “Toxicity of Etoposide, kinetic analysis” value is recorded as “could reduce the toxicity of Etoposide at all measured time points”. Further, in assay [4] (24 h, increasing concentrations of Etoposide, different concentrations of Roc-A, dose-dependent (FIG. 1a left, FIG. 7)), the “Reduction of Etoposide-induced cell death of normal T cells” value is reported as “more than 50%”. The “Chemo-protective effect when Roc-A is administered after Etoposide” value in [4] (Roc-A added 2 and 4.5 h after Etoposide (50 μM) (FIG. 1a right)) was “chemo-protective effect could be even seen”. Also, in assay [4] (Roc-A with Etoposide, FIG. 1a, FIG. 7), the “Protection of T cells from Etoposide-induced apoptotic cell death” value was “protects T cells from Etoposide-induced apoptotic cell death in a dose- and time-dependent manner; also recorded: reduces Etoposide-induced apoptosis in T cells”. The “Change in cell death on increased Etoposide doses with Roc-A” value is recorded as “increased cell death in malignant cells” in assay [5] and “only resulted in increased cell death in malignant cells” in assay [7]. Further, the “Drug-induced apoptosis (Teniposide, Doxorubicin, Bleomycin)” value in assay [8] was “reduces Teniposide-, Doxorubicin- and Bleomycin-induced apoptotic cell death in T cells; also recorded: could reduce drug-induced apoptosis in all cases”. Further, the “Effect on Etoposide-induced γ-H2AX foci formation” value in assay [9] is “does not prevent Etoposide-induced increase in γ-H2AX; also recorded: did not block Etoposide-induced γ-H2AX foci formation”.
